Assay results from patent US20100029542A1, “PROTEIN STERILISATION BY RADIATION AND ADDITION OF A STABILISING COMPOSITION” (priority 2006, published 2010).
Where two headings read alike, the source gives them in different places.

What was measured:
[1] = cited from earlier work
Sandostatin = experiment: Recovery of structural integrity of Sandostatin in dry formulations following gamma irradiation (HPLC); type: physicochemical; details: structural integrity by HPLC, excipient:Sandostatin weight ratio 10:1, 25-40 kGy
Method: In each example, an aqueous solution of a protein was prepared with selected additives in an Eppendorf tube or in a glass vial. Water was removed from the formulation by drying under a stream of nitrogen at 30° C. and subsequent incubation at atmospheric pressure in the presence of a dessicant. The Eppendorf tubes or the glass vials were sealed and delivered to an industrial sterilisation service for gamma irradiation, with a dose range typical for sterile medical products. The gamma-irradiated samples were reconstituted on their return and analysed for protein activity or structural integrity. The results were compared with those achieved using control (i.e. non-irradiated) samples.
The dry samples (approx. 20 μg in an Eppendorf tube) were gamma-irradiated by an industry-standard commercial sterilising service provided by Isotron PLC (Swindon, Wilts, UK), using a Cobalt 60 gamma source at ambient temperature. The radiation dose was in the range of 25-40 kGy.
Mobile phase A was 0.1 M triethylamine adjusted to pH 2.3 with phosphoric acid. Mobile phase B was acetonitrile. The mobile phases were filtered prior to their use. The following linear gradient was used: time 0: 90% A+10% B; time 35 min: 60% A+40% B. The liquid chromatograph (Agilent 1100 series) was equipped with a 214 nm detector, guard column and a 4.6×150 mm C18 column with a granulometry of 5 μm and a porosity of 30 nm, maintained at ambient temperature. The flow rate was maintained at 1.0 mL min^−1. Injection volume was 50 μL (typically sandostatin at 200 μg mL^−1). Results were expressed as % of main peak area (i.e. area of the peak corresponding to intact sandostatin measured in the gamma irradiated sample with respect to that measured in non-irradiated sample of identical composition). A chromatogram of a standard solution of sandostatin was recorded after every 12 samples to ensure that no drift in the position of the major peak had occurred. The control measurements ruled out any ambiguity in interpreting the chromatograms.

## CSCC[C@H](N)C(=O)O [Methionine]
[1]; Table 5
  Rate of reaction with singlet oxygen: 1.3e+07 M⁻¹ s⁻¹
[1]; Table 7
  Rate of reaction with singlet oxygen: 1.3e+07 M⁻¹ s⁻¹
[1]; Table 8
  Rate of reaction with singlet oxygen: 1.3e+07 M⁻¹ s⁻¹
Sandostatin; Table 8, singlet oxygen scavengers
  Enzyme activity remaining after gamma-irradiation: 91.1%
Sandostatin; Table 12, superoxide scavengers
  Enzyme activity remaining after gamma-irradiation: 91.1%
